Test results reported in patent publication US10610564B2, “IRGM and precision autophagy controls for antimicrobial and inflammatory disease states and methods of detection of autophagy” (STC.UNM, priority 2015, dated 2020).

B1: IFN-γ: interferon-gamma (PeproTech), precision autophagy modulator (protein, UniProt P01579 24-161, looked up)
Interferon gamma: QDPYVKEAENLKKYFNAGHSDVADNGTLFLGILKNWKEESDRKIMQSQIVSFYFKLFKNFKDDQSIQKSVETIKEDMNVKFFNSNKKKRDDFEKLTNYSVTDLNVQRKAIHELIQVMAELSPAAKTGKRKRSQMLFRG

Each molecule was assayed on THP-1 cells (assay: High content analysis of LC3 puncta in THP-1 cells (TRIM family screen conditions)). Conditions: IFN-γ 4 h.
Assay type: cell-based, human
Description: (A) THP-1 cells were subjected to TRIM knockdown, treated with 1,000 U/mL IFN-γ for 4 h, and high content (HC) analysis was performed using a Cellomics HCS scanner (epifluorescence) and iDEV software. HC (magenta, endogenous LC3B immunofluorescence [IF]; blue, nuclei stained with Hoechst). Mask overlay, software-defined objects (primary objects, cell outlines; internal secondary objects, LC3 puncta). (B) Average count of LC3 puncta per cell from cells treated as in (A) (Data from two 96-well plates with identical siRNA arrangements; the corresponding data are shown in Supplementary FIG. 1C). Encircled are INF-γ-treated wells (right) and wells with vehicle controls (bottom left). TRIM knockdowns that reduced LC3 puncta readout in both two experiments by 3 SDs (horizontal dot lines) from the average of IFN-γ-treated controls (horizontal solid line) are indicated by corresponding TRIM numbers (open circle). TRIMs that were chosen in follow-up experiments in FIG. 1C are also indicated with number. (C) Similar to (B), except that THP-1 cells were subjected to specific TRIM or scrambled (Scr; control) knockdown, and were analyzed in more than quadruplicate manner. […] (E) THP-1 cells were treated with TRIM20 or Scr siRNAs, treated with or without IFN-γ for 4 h in the presence of bafilomycin A1, and LC3-II conversion was determined by immunoblots. […]

Molecule | autophagy induction (LC3 puncta per cell)
B1 | induced autophagy

The molecules below were run on primary human macrophages (assay: High content analysis of LC3 puncta in primary human macrophages). Conditions: IFN-γ 4 h.
Assay type: cell-based
Description: (§1) (A and B) High content image analysis of LC3 puncta in (A) THP-1 cells or (B) human MDM cells treated with IFN-γ for 4 h. HC and mask overlays are as in FIG. 1. (C) Screen data from FIG. 1B showing average±range. (D) Knockdown efficacy of TRIMs were determined by RT-PCR. (E and F) THP-1 cells were treated with (E) escalating doses of IFN-γ for 4 h or (F) 1,000 U/ml of IFN-γ for indicated times, and TRIM20 mRNA levels were determined by quantitative RT-PCR. Values are standardized to (E) no IFN-γ control or (F) 0 h time point. (G) THP-1 cells were subjected to TRIM20 or scrambled siRNA, treated with IFN-γ for 4 h, and HC analysis performed. (H) Knockdown of TRIM20 mRNA levels was examined by quantitative RT-PCR. Values are standardized to control (Scr, scrambled; no IFN-γ). (I) LC3-II conversion in HEK293 cells transfected with GFP-TRIM20 (T20) or GFP. Data, means±SE, n≥3 experiments, except panel (C). Scale bars, 5 μm. *P<0.05, ^†P≥0.05 (t test in (B) or ANOVA (other panels)).
High content imaging and analysis was performed using a Cellomics V^TI HCS scanner and iDEV software (ThermoScientific). […] Epifluorescnece images were machine analyzed using present scanning parameters and object mask definitions. Hoechst 33342 staining were used to automatically detect cellular outlines based on background staining of the cytoplasm, and the mean count of LC3 puncta per cell was determined.

Molecule | autophagy induction (LC3 puncta per cell)
B1 | induced autophagy

The molecules below were run on TRIM20 (assay: TRIM20 mRNA levels by quantitative RT-PCR in THP-1 cells). Conditions: escalating doses for 4 h or 1,000 U/ml for indicated times.
Assay type: cell-based, human
Description: as §1, with “Data, means±SE, n≥3 experiments, except panel (C). Scale bars, 5 μm. *P<0.05, ^†P≥0.05 (t test in (B) or ANOVA (other panels)).” left out
(§2) Detection of IRF3 dimerization was performed by native polyacrylamide gel electrophoresis (PAGE) as previously described (Takahasi et al., 2003). Quantitative RT-PCR was performed as previously described (Kimura et al., 2013) using the following primer sets: ULK1, ([…], […]); BECN1, ([…], […]); ACTIN, ([…], […]); TRIM1, ([…], […]); TRIM5, ([…], […]); TRIM8, ([…], […]); TRIM16, ([…], […]); TRIM20, ([…], […]); TRIM21, ([…], […]); TRIM22, ([…], […]); TRIM28, ([…], […]); TRIM56, ([…], […]); and TRIM65, ([…], […]). […]

Molecule | TRIM20 expression
B1 | responsive

What follows are molecules tested on TRIM21 (assay: TRIM21 mRNA levels by quantitative RT-PCR in THP-1 cells). Conditions: 1,000 U/ml IFN-γ for indicated times.
Assay type: cell-based, human
Description: (A) THP-1 cells were treated with 1,000 U/ml of IFN-γ for indicated times, and TRIM21 mRNA levels were determined by quantitative RT-PCR. (B) Co-immunoprecipitation analysis of GFP-TRIM20 with Flag-TRIM21 in HEK293 cells extracts. (C) Knockdown efficacy of TRIM21 level was examined by immunoblotting. (D) Levels of dimerized IRF3 were assessed by native PAGE from THP-1 cells subjected to TRIM21 or control knockdown, untreated with IFN-γ, and transfected with herring testis DNA (HT-DNA). (E and F) THP-1 cells subjected to TRIM21 or control knockdown were infected with a single-round infection HIV1 virus in the presence of 200 U/mL IFN-γ for 20 h, and (E) the levels of dimerized IRF3 or (F) mRNA levels of IFN-β were determined. […]
as §2

Molecule | TRIM21 expression
B1 | transiently induced

The molecules below were run on autophagy (assay: Autophagy assays identifying autophagy modulators). Conditions: not given.
Assay type: cell-based

Molecule | activity as autophagy modulator
CC(C)COCC(CN(Cc1ccccc1)c1ccccc1)N1CCCC1 (stereo not shown) [bepridil] | agonists or inducers of autophagy
COC(=O)Nc1nc2cc(C(=O)c3ccc(F)cc3)ccc2[nH]1 [flubendazole] | agonists or inducers of autophagy
CNCC(O)c1ccc(OC(=O)C(C)(C)C)c(OC(=O)C(C)(C)C)c1 (stereo not shown) [dipivefrin] | agonists or inducers of autophagy
O=C(Nc1ccccc1)OCC(CN1CCCCC1)OC(=O)Nc1ccccc1 (stereo not shown) [diperodon] | agonists or inducers of autophagy
CNCCC=C1c2ccccc2CCc2ccccc21 [nortriptyline] | agonists or inducers of autophagy
CN(Cc1cc(Br)cc(Br)c1N)C1CCCCC1 [bromhexine] | agonists or inducers of autophagy
CC12CC3CC(C)(C1)CC(N)(C3)C2 [memantine] | agonists or inducers of autophagy
CC[N+](C)(CC)CCC[n+]1c(-c2ccccc2)c2cc(N)ccc2c2ccc(N)cc21.[I-].[I-] [propidium iodide] | agonists or inducers of autophagy
CCCCc1cc2ccccc2c(OCCN(C)C)n1 [dimethisoquin] | agonists or inducers of autophagy
N#Cc1c(Cl)c(Cl)c(Cl)c(C#N)c1Cl [tetrachlorisophthalonitrile] | antagonists or inhibitors of autophagy
CC(=O)[O-].[Hg+][c]1ccccc1 [phenylmercuric acetate] | antagonists or inhibitors of autophagy
COCCCC/C(=N\OCCN)c1ccc(C(F)(F)F)cc1 [fluvoxamine] | agonists or inducers of autophagy
CCN(CC)CCOc1ccc(C(=C(Cl)c2ccccc2)c2ccccc2)cc1.O=C(O)CC(O)(CC(=O)O)C(=O)O [clomiphene citrate (Z,E)] | agonists or inducers of autophagy
CN1CCCC(CC2c3ccccc3Sc3ccccc32)C1 (stereo not shown) [metixene] | agonists or inducers of autophagy
CNCCC=C1c2ccccc2C=Cc2ccccc21 [norcyclobenzaprine] | agonists or inducers of autophagy
